Results from a melting point compilation (Tetko et al.).

SMILES	melting point
O=C(O)C1=CC=CN2CCS(=O)(=O)N=C12	313 to 315 °C
COc1ccc2c(-c3ccccc3)cc(Cl)nc2c1	100 to 102 °C
NNC(=O)c1cc2sccc2cn1	204 to 206 °C
O=C(O)CC=Cc1cccc(F)c1	64 to 66 °C
O=C(NC1(c2nn[nH]n2)CCCC1)c1ccccc1	228 to 230 °C
CC(=O)NCCNC(=O)CCC(=O)O	166 to 168 °C
O=C(CCCl)NC(=O)NCc1ccccc1	117 to 119 °C
O=C(O)c1ccc(-c2ccncc2)[nH]c1=O	315 to 317 °C
O=C1CCSc2ccc(C(=O)O)cc2N1	262 to 264 °C
CN1CCN(S(=O)(=O)c2ccc(C(=O)NN)cc2)CC1	170 to 172 °C
O=C(CC1CCCC1)N1CCNCC1	37 to 39 °C
N#Cc1cc(C(=O)O)c[nH]1	229 to 231 °C
COc1ccc(S(=O)(=O)Nc2cccnc2)cc1N	153 to 155 °C
CS(=O)(=O)N1CCc2cc(C(=O)CCl)ccc21	137 to 139 °C
O=c1cc(CO)occ1OCc1ccccc1	96 to 98 °C
COc1ccc(CCC(=O)Nc2ccccc2C(=O)O)cc1	159 to 161 °C
COc1ccc(CCNC(N)=S)cc1OC	159 to 161 °C
O=C(O)CCCCCc1ccc(I)cc1	65 to 67 °C
NC(=O)C1Cc2cc(S(N)(=O)=O)ccc2O1 (stereo unspecified)	223 to 225 °C
CC1CC(C)CN(S(=O)(=O)c2ccc(S(=O)(=O)Cl)cc2)C1 (stereo unspecified)	153 to 155 °C
O=c1[nH]ccnc1Cl	159 to 161 °C
Nc1ccc2[nH]c3c(c2c1)CCCC3	174 to 176 °C
O=C1COc2ccc(C(=O)/C=C/c3ccccc3)cc2N1	228 to 230 °C
O=C1COc2c(cccc2C(=O)O)N1	311 to 313 °C
O=CNc1ccc2c(c1)OCO2	96 to 98 °C

SMILES	melting point
O=C(c1ccc(Cl)cc1)c1ncccn1	91 to 93 °C
O=C(c1cccc(F)c1)N1CCCNCC1	49 to 51 °C
Cc1c(C(=O)O)oc2c(Br)cccc12	204 to 206 °C
NNC(=O)c1ccccn1	95 to 100 °C
Sc1nnc(-c2ccncc2)[nH]1	308 to 313 °C
C=CCN=c1nn[nH]n1C	66 to 68 °C
COc1c(Cl)ccnc1O	169 to 171 °C
CC(O)c1ccc(N(C)Cc2ccccn2)c(F)c1 (stereo unspecified)	73 to 75 °C
COC(=O)C(C#N)=Cc1cccc(F)c1	107 to 109 °C
O=C1c2ccccc2C(=O)N1CCCCCCO	57 to 59 °C
CN(C)c1cncc(Cl)n1	44 to 46 °C
CCCCCCn1cc(S(=O)(=O)Cl)c(=O)[nH]c1=O	157 to 159 °C
NNc1ccc(S(=O)(=O)N2CCC(Cc3ccccc3)CC2)cn1	185 to 187 °C
CC(C)S(=O)(=O)c1ccccc1C(=O)O	149 to 151 °C
Cc1cc(C)c(C(N)=O)c(N2CCCC2)n1	174 to 176 °C
Cc1cccc(Nc2nnc(S)s2)c1	196 to 198 °C
CN(c1ccccc1)S(=O)(=O)c1cccc(NC(=O)CCl)c1	98 to 100 °C
CC1Oc2c(C(=O)O)cccc2C1C (stereo unspecified)	96 to 100 °C
Nc1cc(-c2ccccc2F)no1	118 to 120 °C
O=C(O)C=Cc1ccc2ccc(Cl)cc2n1	226 to 228 °C
Ic1nnc[nH]1	196 to 198 °C
Sc1nnc(-c2ccncc2)n1-c1ccccc1	290 to 292 °C
Nc1nnc(Cc2cccc3ccccc23)o1	224 to 226 °C
Cc1cc(S(=O)(=O)Cl)cc([N+](=O)[O-])c1C	127 to 129 °C
CCN(Cc1ccc2c(c1)OCCO2)C(=O)CCl	213 to 215 °C

SMILES	melting point
Cc1c(C(=O)O)cnn1C1CCCCC1	143 to 145 °C
CCS(=O)(=O)NCCc1ccc(S(N)(=O)=O)s1	121 to 123 °C
NCCc1nc2ccccc2[nH]1	215 to 230 °C
Nc1ccccc1Cn1ccnc1	81 to 83 °C
NC(=S)CN1C(=O)CCC1=O	156 to 158 °C
COc1nc(Cl)c(C=O)n1C	105 to 107 °C
CC(NC(=O)OC(C)(C)C)c1ccc(CN)cc1 (stereo unspecified)	78 to 80 °C
Cc1ccccc1CCNC(=O)CCl	68 to 70 °C
O=C(O)c1ccc([N+](=O)[O-])c2cccnc12	204 to 206 °C
NC(=O)C1(Br)CCC1	150 to 152 °C
O=C(O)CNc1ccccc1Cl	173 to 175 °C
Nc1cc(N2CCCS2(=O)=O)ccc1O	134 to 136 °C
CC(C)c1ncncc1C(=O)O	134 to 136 °C
Cc1nn2c(CO)c(C)nc2s1	129 to 131 °C
O=C(CO)N1CCc2ccccc21	147 to 149 °C
COC(=O)C(c1ccc(F)cc1)N1CCN(C(=O)OC(C)(C)C)CC1 (stereo unspecified)	82 to 84 °C
O=C(NC1CC1)n1ccnc1	89 to 91 °C
COc1ccc(N)cc1-n1nnnc1C1CC1	161 to 163 °C
CC(N)C(O)c1ccc(F)cc1 (stereo unspecified)	87 to 89 °C
O=C(O)c1ccccc1Oc1cccc(Br)c1	108 to 110 °C
C=Cn1ccnc1CO	103 to 105 °C
NC(=O)NN=Cc1ccccc1O	232 to 234 °C
Cn1c(=O)c2ccccc2n2c(CCl)nnc12	228 to 229 °C
CC(C)(C)c1ccc(-c2nnc(S)n2N)cc1	105 to 106 °C
CC(=O)c1c(C)nn(-c2ccccc2)c1C	60 to 62 °C

SMILES	melting point
NCCCNC(=O)c1cccc(O)c1	136 to 138 °C
CCCc1cc(Cl)n2nc(C(=O)OC)nc2n1	117 to 119 °C
Nc1ccccc1OCC(F)(F)F	49 to 51 °C
Cc1[nH]c(=O)[nH]c(=O)c1C#N	351 to 353 °C
CNC1CCN(c2cc(OC)cc(OC)c2)C1 (stereo unspecified)	52 to 54 °C
CCOC(=O)Cc1nc2cc(Cl)ccc2s1	79 to 81 °C
N#CC(N)c1cnn(-c2ccccc2)c1 (stereo unspecified)	98 to 100 °C
COc1ccc(N)cc1Br	58 to 60 °C
Cc1nn(C)c2ncc(SC(=O)N(C)C)cc12	144 to 146 °C
O=C(O)c1ccc(S(=O)(=O)Cl)cc1F	142 to 144 °C
O=C(O)c1cc(=O)c(OCc2ccccc2)co1	179 to 181 °C
CS(=O)(=O)c1nc2cc(Br)cnc2[nH]1	222 to 224 °C
CC(C)c1ccc(-c2nc(CSc3nnc(N)[nH]3)cs2)cc1	156 to 158 °C
CS(=O)(=O)NC1CCC(O)CC1 (stereo unspecified)	149 to 151 °C
CS(=O)(=O)c1ccc(NC(=O)OCC(F)(F)F)cc1	175 to 177 °C
Cc1ccc(-c2nc3c(s2)C(=O)CCC3)cc1	128 to 130 °C
CCOC(=O)C1CC1c1ccc(OC)cc1 (stereo unspecified)	78 to 80 °C
COc1ccc2oc(C)c(C(=O)O)c2c1	209 to 211 °C
CC(C)(C)OC(=O)NCCC(=O)NN	104 to 106 °C
Nc1ccccc1C(=O)NCCc1ccccc1	110 to 112 °C
Nc1ccc(N)c(S(=O)(=O)Nc2ccccc2Cl)c1	213 to 215 °C
Cc1ccc(Cl)c(OCC(=O)O)c1	134 to 136 °C
Cc1nccn1-c1ccc(N)cc1F	84 to 86 °C
Cc1ccc2nc3ccccc3c(Cl)c2c1	121 to 123 °C
O=C(O)CSc1ccc(F)cc1F	73 to 75 °C

SMILES	melting point
Cc1nn(Cc2cccc(Br)c2)c(C)c1C(=O)O	174 to 176 °C
O=C(O)CCc1ccc(Cl)s1	50 to 52 °C
COCCOc1c(Cl)cc(N)cc1Cl	58 to 60 °C
Cc1cccc(NC(=O)CSCC(=O)O)c1	200 to 206 °C
Cc1c(C(=O)O)cc(Cl)cc1S(=O)(=O)Cl	109 to 111 °C
CCNC(=O)COc1cccc(C(C)N)c1 (stereo unspecified)	79 to 81 °C
COc1coc(CO)cc1=O	163 to 165 °C
COc1ccc(OC)c(C(O)CN)c1 (stereo unspecified)	96 to 98 °C
CCOC(=O)c1c(N)sc2c1CCN(CC)C2	83 to 87 °C
CC(C)NC(=O)CC1(C(=O)O)CCCC1	139 to 141 °C
CCC(C)C(C)S(N)(=O)=O (stereo unspecified)	44 to 46 °C
CCN(CCO)c1ccc(NS(=O)(=O)c2ccc(N)cc2)cc1	114 to 116 °C
NC(=O)c1ccc2c(c1)CCCC2	140 to 142 °C
CCNC(=O)c1ccc(F)cc1Br	103 to 105 °C
O=Cc1cc(Cl)cc2c1OCC2	85 to 87 °C
O=C(O)CCCNC(=O)c1ccsc1	235 to 237 °C
O=C1CCOc2ccccc2N1	109 to 111 °C
CCS(=O)(=O)NCCC(=O)O	63 to 65 °C
Cc1nc(O)c2c(n1)CN(Cc1ccccc1)CC2	211 to 213 °C
O=C1COc2ccc(Cl)cc21	115 to 117 °C
COC(=O)c1cc(N)cc(C(F)(F)F)c1	78 to 80 °C
Cc1cc(N)ncn1	186 to 188 °C
NCc1ccc(-c2cccnc2)cc1	66 to 68 °C
Cc1cc(C)c(C)c(S(N)(=O)=O)c1C	149 to 151 °C
Nc1ccc(S(=O)(=O)Nc2ccccc2Cl)cc1N	203 to 205 °C

SMILES	melting point
Cc1ccn2cc(C(=O)O)nc2c1	225 to 229 °C
Cc1n[nH]c(-c2ccccn2)n1	167 to 169 °C
NC(=O)NC(=O)OCCCCl	165 to 167 °C
O=C(Nc1ccsc1C(=O)O)c1ccncc1	230 to 232 °C
O=S(=O)(c1ccc(F)cc1)N1CCCNCC1	180 to 182 °C
O=C(O)Cc1ccc(NS(=O)(=O)c2ccc(F)cc2)cc1	180 to 182 °C
O=C1CC2CCCC(C1)N2Cc1ccccc1	66 to 68 °C
CCNc1ncc(C(=O)OC)s1	136 to 138 °C
CN1CCc2nc(N)c(C#N)cc2C1	215 to 217 °C
Nc1cnc(-c2cccc(F)c2)nc1	112 to 114 °C
O=C(O)CCSc1nc2ccccc2s1	149 to 151 °C
Cc1cc(C(=O)NCC(=O)O)ccc1[N+](=O)[O-]	216 to 218 °C
Nc1ccc(Sc2nc3ccccc3[nH]2)cc1	224 to 226 °C
O=C(CO)Nc1cccc([N+](=O)[O-])c1	182 to 184 °C
CC(=O)Oc1cc(C)ccc1C(=O)O	139 to 141 °C
OCCOc1ccc(Br)cn1	51 to 53 °C
Nc1cc(C(=O)N2CCCC2)ccc1Cl	137 to 139 °C
Cc1ccccc1-n1cnnc1S	144 to 146 °C
CC(C)c1c(C(=O)O)cnc2ncnn12	207 to 209 °C
O=C(CCCl)N1CCN(c2ccc(F)cc2)CC1	99 to 101 °C
Nc1ccc2nc(N3CCOCC3)sc2c1	166 to 168 °C
